From ChEMBL document CHEMBL1201862, “PubChem BioAssay data set” (2004)
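48-hour exposure; five concentrations; linearly interpolated endpoints. GI50 is the concentration that inhibits growth by half.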 The source made the active and inactive calls. Rule as the data show it: active = GI50 up to about 1.1 µM and inactive = higher.

What was measured:
Test in all cases: NCI anticancer screen, dose series, 48 h
786-0 = tested on: 786-0
A498 = tested on: A498
A549 = tested on: A549
ACHN = tested on: ACHN
BT-549 = tested on: BT-549
CAKI-1 = tested on: CAKI-1
CCRF-CEM = tested on: CCRF-CEM
COLO 205 = tested on: COLO 205
DU-145 = tested on: DU-145
EKVX = tested on: EKVX
HCC 2998 = tested on: HCC 2998
HCT-116 = tested on: HCT-116
HCT-15 = tested on: HCT-15
HOP-62 = tested on: HOP-62
HOP-92 = tested on: HOP-92
Hs-578T = tested on: Hs-578T
IGROV-1 = tested on: IGROV-1
K562 = tested on: K562
KM12 = tested on: KM12
LOX IMVI = tested on: LOX IMVI
M14 = tested on: M14
MCF7 = tested on: MCF7
MDA-MB-231 = tested on: MDA-MB-231
MDA-MB-435 = tested on: MDA-MB-435
MDA-N = tested on: MDA-N
MOLT-4 = tested on: MOLT-4
Malme-3M = tested on: Malme-3M
NCI-H226 = tested on: NCI-H226
NCI-H23 = tested on: NCI-H23
NCI-H460 = tested on: NCI-H460
NCI-H522 = tested on: NCI-H522
NCI/ADR-RES = tested on: NCI/ADR-RES
OVCAR-3 = tested on: OVCAR-3
OVCAR-4 = tested on: OVCAR-4
OVCAR-5 = tested on: OVCAR-5
OVCAR-8 = tested on: OVCAR-8
PC-3 = tested on: PC-3
RPMI-8226 = tested on: RPMI-8226
RXF 393 = tested on: RXF 393
SF-268 = tested on: SF-268
SF-295 = tested on: SF-295
SF-539 = tested on: SF-539
SK-MEL-28 = tested on: SK-MEL-28
SK-MEL-2 = tested on: SK-MEL-2
SK-MEL-5 = tested on: SK-MEL-5
SK-OV-3 = tested on: SK-OV-3
SN12C = tested on: SN12C
SNB-19 = tested on: SNB-19
SNB-75 = tested on: SNB-75
SR = tested on: SR
SW-620 = tested on: SW-620
T47D = tested on: T47D
TK-10 = tested on: TK-10
U-251 = tested on: U-251
UACC-257 = tested on: UACC-257
UACC-62 = tested on: UACC-62
UO-31 = tested on: UO-31
HT-29 = tested on: HT-29

O=c1c2ccccc2oc2nc3n(c(=O)c12)CCCS3
GI50 (786-0): > 100 µM (inactive)
GI50 (A498): > 100 µM (inactive)
GI50 (A549): > 100 µM (inactive)
GI50 (ACHN): > 100 µM (inactive)
GI50 (BT-549): > 100 µM (inactive)
GI50 (CAKI-1): > 100 µM (inactive)
GI50 (CCRF-CEM): > 100 µM (inactive)
GI50 (COLO 205): > 100 µM (inactive)
GI50 (DU-145): > 100 µM (inactive)
GI50 (EKVX): > 100 µM (inactive)
GI50 (HCC 2998): > 100 µM (inactive)
GI50 (HCT-116): > 100 µM (inactive)
GI50 (HCT-15): > 100 µM
GI50 (HOP-62): > 100 µM (inactive)
GI50 (HOP-92): > 100 µM (inactive)
GI50 (Hs-578T): > 100 µM (inactive)
GI50 (IGROV-1): > 100 µM (inactive)
GI50 (K562): > 100 µM (inactive)
GI50 (KM12): > 100 µM (inactive)
GI50 (LOX IMVI): > 100 µM (inactive)
GI50 (M14): > 100 µM (inactive)
GI50 (MCF7): > 100 µM (inactive)
GI50 (MDA-MB-231): > 100 µM (inactive)
GI50 (MDA-MB-435): > 100 µM (inactive)
GI50 (MDA-N): > 100 µM (inactive)
GI50 (MOLT-4): > 100 µM (inactive)
GI50 (Malme-3M): > 100 µM (inactive)
GI50 (NCI-H226): > 100 µM (inactive)
GI50 (NCI-H23): > 100 µM (inactive)
GI50 (NCI-H460): > 100 µM (inactive)
GI50 (NCI-H522): > 100 µM (inactive)
GI50 (NCI/ADR-RES): > 100 µM (inactive)
GI50 (OVCAR-3): > 100 µM (inactive)
GI50 (OVCAR-4): > 100 µM (inactive)
GI50 (OVCAR-5): > 100 µM (inactive)
GI50 (OVCAR-8): > 100 µM (inactive)
GI50 (PC-3): > 100 µM (inactive)
GI50 (RPMI-8226): > 100 µM (inactive)
GI50 (RXF 393): > 100 µM (inactive)
GI50 (SF-268): > 100 µM (inactive)
GI50 (SF-295): > 100 µM (inactive)
GI50 (SF-539): > 100 µM (inactive)
GI50 (SK-MEL-28): > 100 µM (inactive)
GI50 (SK-MEL-2): > 100 µM (inactive)
GI50 (SK-MEL-5): > 100 µM (inactive)
GI50 (SK-OV-3): > 100 µM (inactive)
GI50 (SN12C): > 100 µM (inactive)
GI50 (SNB-19): > 100 µM (inactive)
GI50 (SNB-75): 63.4 µM (inactive)
GI50 (SR): > 100 µM (inactive)
GI50 (SW-620): > 100 µM (inactive)
GI50 (T47D): > 100 µM (inactive)
GI50 (TK-10): > 100 µM (inactive)
GI50 (U-251): > 100 µM (inactive)
GI50 (UACC-257): > 100 µM (inactive)
GI50 (UACC-62): > 100 µM (inactive)
GI50 (UO-31): 15.7 µM (inactive)

COc1ccc(C2CC(c3ccc4ccccc4c3O)=NN2C(C)=O)cc1OC (configuration not stated)
GI50 (786-0): > 100 µM (inactive)
GI50 (A498): > 100 µM (inactive)
GI50 (A549): > 100 µM (inactive)
GI50 (ACHN): > 100 µM (inactive)
GI50 (BT-549): > 100 µM (inactive)
GI50 (CAKI-1): > 100 µM (inactive)
GI50 (CCRF-CEM): 18.8 µM (inactive)
GI50 (COLO 205): > 100 µM (inactive)
GI50 (DU-145): > 100 µM (inactive)
GI50 (HCC 2998): > 100 µM (inactive)
GI50 (HCT-116): > 100 µM (inactive)
GI50 (HCT-15): > 100 µM
GI50 (HOP-62): > 100 µM (inactive)
GI50 (HOP-92): > 100 µM (inactive)
GI50 (HT-29): > 100 µM (inactive)
GI50 (Hs-578T): 71.1 µM (inactive)
GI50 (IGROV-1): > 100 µM (inactive)
GI50 (K562): 78.5 µM (inactive)
GI50 (KM12): > 100 µM (inactive)
GI50 (M14): > 100 µM (inactive)
GI50 (MCF7): > 100 µM (inactive)
GI50 (MDA-MB-231): > 100 µM (inactive)
GI50 (MDA-MB-435): > 100 µM (inactive)
GI50 (MDA-N): > 100 µM (inactive)
GI50 (MOLT-4): 55.1 µM (inactive)
GI50 (Malme-3M): > 100 µM (inactive)
GI50 (NCI-H226): > 100 µM (inactive)
GI50 (NCI-H23): > 100 µM (inactive)
GI50 (NCI-H460): > 100 µM (inactive)
GI50 (NCI-H522): > 100 µM (inactive)
GI50 (NCI/ADR-RES): > 100 µM (inactive)
GI50 (OVCAR-3): > 100 µM (inactive)
GI50 (OVCAR-4): > 100 µM (inactive)
GI50 (OVCAR-5): > 100 µM (inactive)
GI50 (OVCAR-8): > 100 µM (inactive)
GI50 (PC-3): > 100 µM (inactive)
GI50 (RPMI-8226): > 100 µM (inactive)
GI50 (RXF 393): > 100 µM (inactive)
GI50 (SF-268): 61.7 µM (inactive)
GI50 (SF-295): > 100 µM (inactive)
GI50 (SF-539): > 100 µM (inactive)
GI50 (SK-MEL-28): > 100 µM (inactive)
GI50 (SK-MEL-2): > 100 µM (inactive)
GI50 (SK-MEL-5): > 100 µM (inactive)
GI50 (SK-OV-3): > 100 µM (inactive)
GI50 (SN12C): > 100 µM (inactive)
GI50 (SNB-75): > 100 µM (inactive)
GI50 (SR): 19.1 µM (inactive)
GI50 (SW-620): > 100 µM (inactive)
GI50 (T47D): > 100 µM (inactive)
GI50 (TK-10): > 100 µM (inactive)
GI50 (U-251): > 100 µM (inactive)
GI50 (UACC-257): > 100 µM (inactive)
GI50 (UACC-62): 75.9 µM (inactive)
GI50 (UO-31): > 100 µM (inactive)
